What was measured:
[1] = system: P. falciparum NF54 in An. coluzzii; assay: Standard membrane feeding assay (SMFA) with AMPs added to gametocytaemic blood mix; oocyst counts in mosquito midguts; type: in vivo, Plasmodium falciparum; settings: AMP at 50 μM final concentration in gametocytaemic blood mix fed to An. coluzzii; vs PBS-treated control; oocysts counted seven days post-infection; P < 0.001; Fig. 4a
Description: The An. coluzzii N’gousso strain colonized from field-collected mosquitoes of the An. gambiae M molecular form in 2006 in Yaoundé, Cameroon, and the P. falciparum NF54 strain (MRA-1000, patient E) obtained from the MR4 were used for all the experiments reported in this paper. Mosquitoes were reared and maintained at standard insectary conditions (27 ± 1 °C and 70 ± 5%) humidity on a 12:12 light/dark (L:D) cycle: 11.5 h full light of ~ 300 lx starting at 6 am and 11.5 h darkness starting at 6 p.m., separated by 0.5 h dawn and dusk transitions, respectively. All mosquito infection experiments took place between 2 and 4 p.m.
Day 16/17. Gametocyte feeding A 14/15-day old gametocyte culture is used for mosquito infections. Three hours before gametocyte feed, the fructose-soaked cotton ball is removed from the cups to starve the mosquitoes, and mosquito cups are placed in the dark inside a second container for biosafety reasons. The container is placed in an incubator set at standard insectary conditions described above.
One hour before feeding heat-inactivated human serum (56 °C for 30 min) is defrosted at RT and placed on heat block at 37 °C. […]
The gametocyte culture is hand-swirled and placed on 37 °C heat block. […] The number of exflagellation centres formed in the 4 × 4 grid is determined under the microscope (10× objective). […]

[2] = system: different Plasmodium species; settings: injection into anopheline mosquitoes previously infected with different Plasmodium species; cited from earlier work
Description: (§1) AMPs from various sources with different levels of plasmodicidal activities have been previously discovered. […] Both AMPs were previously shown to induce parasite killing.

P. berghei ookinetes = settings: 50 μM concentration; in vitro produced P. berghei ookinetes; cited from earlier work
Description: as §1

P. berghei = settings: in both An. coluzzii and Anopheles stephensi; cited from earlier work
Description: as §1

P. falciparum = settings: mixed with gametocytic blood; An. coluzzii; no reference printed in this sentence (preceding sentence ref 34); cited from earlier work
Description: as §1

Row | Substance | transmission-blocking activity (oocyst infection intensity) compared to control [1] | effect on parasite sporogony [2] | killing of ookinetes (P. berghei ookinetes) | infection prevalence and intensity (P. berghei) | P. falciparum oocyst prevalence and intensity (P. falciparum)
1 | magainin | significant transmission-blocking activity | completely block parasite sporogony | – | – | –
2 | melittin | significant transmission-blocking activity | – | kill | significant decrease in infection prevalence and intensity | reduce P. falciparum oocyst prevalence and intensity

Source: paper PMC6347765, “Streamlined SMFA and mosquito dark-feeding regime significantly improve malaria transmission-blocking assay robustness and sensitivity” (Malaria Journal, 2019)
